In patent US11685900B2, “Nanofiber-based long-term primary hepatocyte three-dimensional culture system and culturing method” (NANOFAENTECH CO., LTD., priority 2017, dated 2023):

System: primary hepatocytes
Conditions: mouse, 24 h
Experimental: Fifty μL of the sample to be quantified and 100 μL of acetonitrile were mixed, centrifuged at 14000 rpm for 10 minutes and the obtained supernatant (130 μL) was dried in nitrogen gas and was dissolved in a solution (10 mM potassium phosphate:acetonitrile, 65%:35% (v/v)) and measured by HPLC (Shimazu Prominence LC-20A) at flow rate of 1 mL/min and at an absorbance of 245 nm for 10 minutes.

- decrease of the drug administered (50 μM): 75-85%
- concentration of phenacetin detected in the culture (500 μM): 350 to 400 µM
- concentration of phenacetin detected in the culture medium (500 μM): 350 µM
- concentration of phenacetin measured in the culture (500 μM): about 200 μM
Structure (SMILES): CCOc1ccc(NC(C)=O)cc1 [phenacetin]
